From patent publication US20260091026A1, “METHODS OF TREATING INFLAMMATORY DISEASES” (INTERLINE THERAPEUTICS, INC., priority 2023, published 2026) come the findings set out here.

For experiment [1], the target named is T1, RIPK2 (KD)/XIAP (BIR2) (Homo sapiens, UniProt O43353).
T1 construct: made in house; host or cells: baculovirus-infected Sf9 cells
Briefly: RIPK2-XIAP binding competition PPI assay (TR-FRET). The settings on record: for Emax: 50 nM of GSK583 = -100% activity, read-out: PPI Amax; for IC50: GST-RIPK2 / His-XIAP (BIR2)-avi, 120 min at 23° C. The essentials:
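TR-FRET competition between GST-RIPK2 (aa 1-310, 1 nM) and His-XIAP BIR2-avi (aa 152-231, 25 nM), both Sf9-expressed, detected with anti-His-XL665 and anti-GST-Tb in Tris pH 7.5 buffer with MgCl2, DTT and vanadate. Incubation was 120 min at 23 °C; the 665/520 nm ratio was normalized to no inhibitor (0%) and 50 nM GSK583 (−100%).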
On the technique in general: In TR-FRET formats the signal depends on donor and acceptor labels being close together.

For experiment [2], the system named is THP1-Dual cells, NF-κB pathway (SEAP). Briefly: THP-1 Dual cell SEAP assay (L18-MDP stimulated). It counts as cell-based. The settings on record: Homo sapiens, 10 ng/mL L18-MDP, 20-24 h, SEAP readout, read-out: IFNγ THP1 IC50. The essentials:
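About 25,000 THP1-Dual cells per well were preincubated 30 min with serially diluted compound, then stimulated overnight (20-24 h, 37 °C) with 10 ng/mL L18-MDP (final). NF-κB-driven SEAP in supernatant was read with QUANTI-Blue at OD 620-655 nm after 2 h; % inhibition versus DMSO/L18-MDP wells was fitted by non-linear regression to give IC50.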

T1 sequence (O43353 1-310): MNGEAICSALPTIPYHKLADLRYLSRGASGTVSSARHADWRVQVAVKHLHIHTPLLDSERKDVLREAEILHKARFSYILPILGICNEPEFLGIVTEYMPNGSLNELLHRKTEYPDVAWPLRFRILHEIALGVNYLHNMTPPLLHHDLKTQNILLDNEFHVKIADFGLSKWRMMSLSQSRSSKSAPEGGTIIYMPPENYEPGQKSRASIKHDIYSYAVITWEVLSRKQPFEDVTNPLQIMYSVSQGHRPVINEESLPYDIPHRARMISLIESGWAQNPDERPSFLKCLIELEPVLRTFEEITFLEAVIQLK

By IC50 is commonly meant the concentration at which inhibition is half-maximal. In the case of `CCn1nc(-c2cnc3cc(OCCO)c(S(=O)(=O)C(C)(C)C)cn23)cc1C(=O)N[C@@H](C)c1ccn(C)n1` [Example 123, (S)-3-(6-(tert-butylsulfonyl)-7-(2-hydroxyethoxy)imidazo[1,2-a]pyridin-3-yl)-1-ethyl-N-(1-(1-methyl-1H-pyrazol-3-yl)ethyl)-1H-pyrazole-5-carboxamide], the Emax in experiment [1] is at least 80%. In addition, the values for the 50% inhibitory concentration (IC50) in experiment [1] and in experiment [2] were 100 to 1000 nM and above 2500 nM, respectively.

As for `CCn1nc(-c2cnc3cc(OC)c(S(=O)(=O)C(C)(C)C)cn23)cc1C(=O)N[C@@H](C)c1ccn(C)n1` [Example 124, (S)-3-(6-(tert-butylsulfonyl)-7-methoxyimidazo[1,2-a]pyridin-3-yl)-1-ethyl-N-(1-(1-methyl-1H-pyrazol-3-yl)ethyl)-1H-pyrazole-5-carboxamide], in experiment [1], the Emax is at least 80% and the 50% inhibitory concentration (IC50) was in the range of 100 to 1000 nM. In experiment [2], the 50% inhibitory concentration (IC50) was above 2500 nM.

As to `CCn1nc(-c2cnc3cc(OC)c(S(=O)(=O)C(C)(C)C)cn23)cc1C(=O)N[C@H](C)c1ccn(C)n1` [Example 125, (R)-3-(6-(tert-butylsulfonyl)-7-methoxyimidazo[1,2-a]pyridin-3-yl)-1-ethyl-N-(1-(1-methyl-1H-pyrazol-3-yl)ethyl)-1H-pyrazole-5-carboxamide], in experiment [1], the Emax is at least 80% and the half-inhibitory concentration (IC50) lay in the range of 10 to 100 nM. Moreover, in experiment [2], the IC50 is below 100 nM.

`CCn1nc(-c2cnc3cc(OCCO)c(S(=O)(=O)C(C)(C)C)cn23)cc1C(=O)NCc1ncc(C)s1` [Example 126, 3-(6-(tert-butylsulfonyl)-7-(2-hydroxyethoxy)imidazo[1,2-a]pyridin-3-yl)-1-ethyl-N-((5-methylthiazol-2-yl)methyl)-1H-pyrazole-5-carboxamide]: the Emax in experiment [1] was at least 80%. Also, the IC50 in experiment [1] was below 10 nM; in experiment [2], below 100 nM.

Regarding `CCn1nc(-c2cnc3cc(OCCO)c(S(=O)(=O)C(C)(C)C)cn23)cc1C(=O)NCc1nccs1` [Example 127, 3-(6-(tert-butylsulfonyl)-7-(2-hydroxyethoxy)imidazo[1,2-a]pyridin-3-yl)-1-ethyl-N-(thiazol-2-ylmethyl)-1H-pyrazole-5-carboxamide], in experiment [1], the Emax is at least 80% and the 50% inhibitory concentration (IC50) was below 10 nM. Moreover, the concentration for half-maximal inhibition (IC50) in experiment [2] is below 100 nM.

With `CCn1nc(-c2cnc3cc(OCCO)c(S(=O)(=O)C(C)(C)C)cn23)cc1C(=O)NCc1ccsn1` [Example 128, 3-(6-(tert-butylsulfonyl)-7-(2-hydroxyethoxy)imidazo[1,2-a]pyridin-3-yl)-1-ethyl-N-(isothiazol-3-ylmethyl)-1H-pyrazole-5-carboxamide], in experiment [1], the Emax was at least 80% and the IC50 is below 10 nM. Further, the half-maximal inhibitory concentration (IC50) in experiment [2] is below 100 nM.

For `CCn1nc(-c2cnc3cc(OCCO)c(S(=O)(=O)C(C)(C)C)cn23)cc1C(=O)NCc1cc(C)sn1` [Example 129, 3-(6-(tert-butylsulfonyl)-7-(2-hydroxyethoxy)imidazo[1,2-a]pyridin-3-yl)-1-ethyl-N-((5-methylisothiazol-3-yl)methyl)-1H-pyrazole-5-carboxamide], in experiment [1], the Emax is at least 80% and the half-inhibitory concentration (IC50) is below 10 nM. Moreover, in experiment [2], the IC50 was below 100 nM.

For `CCn1nc(-c2cnc3cc(OCCO)c(S(=O)(=O)C(C)(C)C)cn23)cc1C(=O)N[C@H](C)c1ncc(C)s1` [Example 130, (R)-3-(6-(tert-butylsulfonyl)-7-(2-hydroxyethoxy)imidazo[1,2-a]pyridin-3-yl)-1-ethyl-N-(1-(5-methylthiazol-2-yl)ethyl)-1H-pyrazole-5-carboxamide], in experiment [1], the Emax is at least 80% and the IC50 is below 10 nM. Also, the IC50 in experiment [2] was below 100 nM.

In the case of `CCn1nc(-c2cnc3cc(OCCO)c(S(=O)(=O)C(C)(C)C)cn23)cc1C(=O)N[C@@H](C)c1ncc(C)s1` [Example 131, (S)-3-(6-(tert-butylsulfonyl)-7-(2-hydroxyethoxy)imidazo[1,2-a]pyridin-3-yl)-1-ethyl-N-(1-(5-methylthiazol-2-yl)ethyl)-1H-pyrazole-5-carboxamide], the Emax in experiment [1] was at least 80%. Moreover, the IC50 in experiment [1] lay within 10 to 100 nM; in experiment [2], 500 to 2500 nM.

Turning to `CCn1nc(-c2cnc3cc(OCCO)c(S(=O)(=O)C(C)(C)C)cn23)cc1C(=O)N[C@H](C)c1cc(C)sn1` [Example 132, (R)-3-(6-(tert-butylsulfonyl)-7-(2-hydroxyethoxy)imidazo[1,2-a]pyridin-3-yl)-1-ethyl-N-(1-(5-methylisothiazol-3-yl)ethyl)-1H-pyrazole-5-carboxamide], in experiment [1], the Emax was at least 80% and the concentration for half-maximal inhibition (IC50) was below 10 nM. Further, in experiment [2], the IC50 is below 100 nM.

Regarding `CCn1nc(-c2cnc3cc(OCCO)c(S(=O)(=O)C(C)(C)C)cn23)cc1C(=O)N[C@@H](C)c1cc(C)sn1` [Example 133, (S)-3-(6-(tert-butylsulfonyl)-7-(2-hydroxyethoxy)imidazo[1,2-a]pyridin-3-yl)-1-ethyl-N-(1-(5-methylisothiazol-3-yl)ethyl)-1H-pyrazole-5-carboxamide], in experiment [1], the Emax is at least 80% and the IC50 was in the range of 100 to 1000 nM. Moreover, the 50% inhibitory concentration (IC50) in experiment [2] fell in the range of 500 to 2500 nM.

As to `CCn1nc(-c2cnc3cc(OCCO)c(S(=O)(=O)C(C)(C)C)cn23)cc1C(=O)N[C@H](C)c1cc(C)ccn1` [Example 134, (R)-3-(6-(tert-butylsulfonyl)-7-(2-hydroxyethoxy)imidazo[1,2-a]pyridin-3-yl)-1-ethyl-N-(1-(4-methylpyridin-2-yl)ethyl)-1H-pyrazole-5-carboxamide], in experiment [1], the Emax is at least 80% and the half-inhibitory concentration (IC50) fell in the range of 10 to 100 nM. In addition, in experiment [2], the IC50 was in the range of 100 to 500 nM.

With `CCn1nc(-c2cnc3cc(OCCO)c(S(=O)(=O)C(C)(C)C)cn23)cc1C(=O)N[C@@H](C)c1cc(C)ccn1` [Example 135, (S)-3-(6-(tert-butylsulfonyl)-7-(2-hydroxyethoxy)imidazo[1,2-a]pyridin-3-yl)-1-ethyl-N-(1-(4-methylpyridin-2-yl)ethyl)-1H-pyrazole-5-carboxamide], in experiment [1], the Emax was at least 80% and the IC50 is above 1000 nM. Besides, the IC50 in experiment [2] was above 2500 nM.

As to `C[C@@H](NC(=O)c1cc(-c2cnc3cc(OCCO)c(S(=O)(=O)C(C)(C)C)cn23)nn1C1CC1)c1ncccn1` [Example 136, (R)-3-(6-(tert-butylsulfonyl)-7-(2-hydroxyethoxy)imidazo[1,2-a]pyridin-3-yl)-1-cyclopropyl-N-(1-(pyrimidin-2-yl)ethyl)-1H-pyrazole-5-carboxamide], in experiment [1], the Emax is at least 80% and the half-maximal inhibitory concentration (IC50) was below 10 nM. For the same molecule, in experiment [2], the IC50 was below 100 nM.

For `CC(C)n1nc(-c2cnc3cc(OCCO)c(S(=O)(=O)C(C)(C)C)cn23)cc1C(=O)N[C@H](C)c1ncccn1` [Example 137, (R)-3-(6-(tert-butylsulfonyl)-7-(2-hydroxyethoxy)imidazo[1,2-a]pyridin-3-yl)-1-isopropyl-N-(1-(pyrimidin-2-yl)ethyl)-1H-pyrazole-5-carboxamide], in experiment [1], the Emax was at least 80% and the half-maximal inhibitory concentration (IC50) is below 10 nM. Also, the half-maximal inhibitory concentration (IC50) in experiment [2] is below 100 nM.

Regarding `COCCn1nc(-c2cnc3cc(OCCO)c(S(=O)(=O)C(C)(C)C)cn23)cc1C(=O)N[C@H](C)c1ncccc1F` [Example 138, (R)-3-(6-(tert-butylsulfonyl)-7-(2-hydroxyethoxy)imidazo[1,2-a]pyridin-3-yl)-N-(1-(3-fluoropyridin-2-yl)ethyl)-1-(2-methoxyethyl)-1H-pyrazole-5-carboxamide], the Emax in experiment [1] was at least 80%. The IC50 in experiment [1] lay within 10 to 100 nM; in experiment [2], 100 to 500 nM.

In the case of `C[C@@H](NC(=O)c1cc(-c2cnc3cc(OCCO)c(S(=O)(=O)C(C)(C)C)cn23)nn1C1COC1)c1ncccc1F` [Example 139, (R)-3-(6-(tert-butylsulfonyl)-7-(2-hydroxyethoxy)imidazo[1,2-a]pyridin-3-yl)-N-(1-(3-fluoropyridin-2-yl)ethyl)-1-(oxetan-3-yl)-1H-pyrazole-5-carboxamide], the Emax in experiment [1] is at least 80%. Moreover, the half-maximal inhibitory concentration (IC50) is 10 to 100 nM in experiment [1] and 100 to 500 nM in experiment [2].

Regarding `COc1cc2ncc(-c3cc(C(=O)N[C@H](C)c4ncccc4F)n(C4CN(C(=O)OC(C)(C)C)C4)n3)n2cc1S(=O)(=O)C(C)(C)C` [Example 140, tert-butyl (R)-3-(3-(6-(tert-butylsulfonyl)-7-methoxyimidazo[1,2-a]pyridin-3-yl)-5-((1-(3-fluoropyridin-2-yl)ethyl)carbamoyl)-1H-pyrazol-1-yl)azetidine-1-carboxylate], the Emax in experiment [1] is at least 80%. Moreover, the results for the IC50 in experiment [1] and in experiment [2] were 10 to 100 nM and 500 to 2500 nM, respectively.

Regarding `COc1cc2ncc(-c3cc(C(=O)N[C@H](C)c4ncccc4F)n(C4CNC4)n3)n2cc1S(=O)(=O)C(C)(C)C` [Example 141, (R)-1-(azetidin-3-yl)-3-(6-(tert-butylsulfonyl)-7-methoxyimidazo[1,2-a]pyridin-3-yl)-N-(1-(3-fluoropyridin-2-yl)ethyl)-1H-pyrazole-5-carboxamide], in experiment [1], the Emax was at least 80% and the IC50 fell in the range of 100 to 1000 nM. Besides, the IC50 in experiment [2] is above 2500 nM.

As for `COc1cc2ncc(-c3cc(C(=O)N[C@H](C)c4ccccn4)n(CCO)n3)n2cc1S(=O)(=O)C(C)(C)C` [Example 142, (R)-3-(6-(tert-butylsulfonyl)-7-methoxyimidazo[1,2-a]pyridin-3-yl)-1-(2-hydroxyethyl)-N-(1-(pyridin-2-yl)ethyl)-1H-pyrazole-5-carboxamide], the Emax in experiment [1] is at least 80%. For the same molecule, the values for the IC50 in experiment [1] and in experiment [2] were 10 to 100 nM and 500 to 2500 nM, respectively.
